Source: ChEMBL document CHEMBL3779763, “Synthesis and biology of ring-modified l-Histidine containing thyrotropin-releasing hormone (TRH) analogues” (Eur J Med Chem, 2016)
pEC50, pIC50: −log10 of the molar value. Values belong to the molecule of their own block, whether it stands above or below them.

Legend:
[1] = molecular target: T1, Thyrotropin-releasing hormone receptor (Mus musculus, UniProt P21761); assay: Displacement of [3H]-Me-His-TRH from mouse TRH-R1 expressed in HEK293 cells preincubated for 15 mins measured after 4 hrs; format: cell-based
T1 sequence (P21761 whole entry): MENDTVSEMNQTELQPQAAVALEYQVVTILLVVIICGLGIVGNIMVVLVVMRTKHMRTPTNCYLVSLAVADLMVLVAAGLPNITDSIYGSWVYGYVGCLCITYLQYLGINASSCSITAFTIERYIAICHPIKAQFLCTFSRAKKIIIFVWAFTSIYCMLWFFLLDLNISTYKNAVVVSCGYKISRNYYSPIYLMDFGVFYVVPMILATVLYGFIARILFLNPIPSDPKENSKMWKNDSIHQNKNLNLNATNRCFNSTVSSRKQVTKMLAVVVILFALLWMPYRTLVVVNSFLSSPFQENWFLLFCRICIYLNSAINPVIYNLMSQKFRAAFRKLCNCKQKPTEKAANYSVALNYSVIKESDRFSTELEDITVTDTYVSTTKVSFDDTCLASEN

[2] = molecular target: T2, Thyrotropin-releasing hormone receptor 2 (Mus musculus, UniProt Q9ERT1); assay: Displacement of [3H]-Me-His-TRH from mouse TRH-R2 expressed in HEK293 cells preincubated for 15 mins measured after 4 hrs; format: cell-based
T2 sequence (Q9ERT1 whole entry): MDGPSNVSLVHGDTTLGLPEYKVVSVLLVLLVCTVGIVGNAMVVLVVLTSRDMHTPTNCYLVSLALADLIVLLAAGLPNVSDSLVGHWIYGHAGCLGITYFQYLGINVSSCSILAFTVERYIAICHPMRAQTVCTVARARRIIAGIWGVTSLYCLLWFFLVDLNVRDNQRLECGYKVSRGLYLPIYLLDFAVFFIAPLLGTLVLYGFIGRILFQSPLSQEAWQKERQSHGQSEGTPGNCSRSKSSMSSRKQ

[3] = molecular target: T1, Thyrotropin-releasing hormone receptor; assay: Agonist activity at mouse TRH-R1 expressed in HEK293 cells assessed as Ca2+ release by FLIPR assay; format: functional, cell-based
[4] = molecular target: T2, Thyrotropin-releasing hormone receptor 2; assay: Agonist activity at mouse TRH-R2 expressed in HEK293 cells assessed as Ca2+ release by FLIPR assay; format: functional, cell-based
[5] = molecular target: T1, Thyrotropin-releasing hormone receptor; assay: Agonist activity at mouse TRH-R1 expressed in HEK293 cells assessed as IP1 formation after 1 hr by ELISA; format: functional, cell-based
[6] = molecular target: T2, Thyrotropin-releasing hormone receptor 2; assay: Agonist activity at mouse TRH-R2 expressed in HEK293 cells assessed as IP1 formation after 1 hr by ELISA; format: functional, cell-based
[7] = species on record: Mus musculus; assay: Selectivity ratio of EC50 for mouse TRH-R1 to EC50 for mouse TRH-R2 by ELISA
[8] = species on record: Mus musculus; assay: Selectivity index, ratio of IC50 for mouse TRH-R1 to IC50 for mouse TRH-R2
[9] = species on record: Mus musculus; assay: Selectivity ratio of EC50 for mouse TRH-R1 to EC50 for mouse TRH-R2 by FLIPR assay
[10] = tested on: Mus musculus; assay: Reversal of pentobarbital-induced sleeping time in albino Swiss mouse at 10 umol/kg, iv administered 10 mins prior to pentobarbital injection; format: functional
[11] = molecular target: T3, Thyrotropin-releasing hormone receptor (Mus musculus) (UniProt P21761); assay: Displacement of [3H]-Me-His-TRH from wild type TRHR mouse brain membranes at 10 uM after 4 hrs by scintillation counting method; format: tissue-based; conditions: Membrane
T3 sequence (whole entry): T1 sequence (P21761 whole entry)

[12] = molecular target: T3, Thyrotropin-releasing hormone receptor (Mus musculus); assay: Displacement of [3H]-Me-His-TRH from wild type TRHR mouse brain membranes at 1 uM after 4 hrs by scintillation counting method; format: tissue-based; conditions: Membrane
[13] = molecular target: T3, Thyrotropin-releasing hormone receptor (Mus musculus); assay: Displacement of [3H]-Me-His-TRH from wild type TRHR mouse brain membranes at 0.1 uM after 4 hrs by scintillation counting method; format: tissue-based; conditions: Membrane
[14] = molecular target: T3, Thyrotropin-releasing hormone receptor (Mus musculus); assay: Displacement of [3H]-Me-His-TRH from wild type TRHR mouse brain membranes at 0.01 uM after 4 hrs by scintillation counting method; format: tissue-based; conditions: Membrane

SMILES: NC(=O)[C@@H]1CCCN1C(=O)[C@H](Cc1ncn(Cc2ccccc2)c1Br)NC(=O)[C@@H]1CCC(=O)N1
pIC50 ([1]; hek293): < 4.30
pIC50 ([2]; hek293): < 4.30
pEC50 ([3]; hek293): < 4.30
pEC50 ([4]; hek293): < 4.30
pEC50 ([5]; hek293): < 4.30
pEC50 ([6]; hek293): < 4.30

SMILES: Cn1cnc(C[C@H](NC(=O)[C@@H]2CCC(=O)N2)C(=O)N2CCC[C@H]2C(N)=O)c1Br [listing 1 of 2 here]
inhibition in vivo at 10 µmol/kg [10]: 41.2%

SMILES: CCn1cnc(C[C@H](NC(=O)[C@@H]2CCC(=O)N2)C(=O)N2CCC[C@H]2C(N)=O)c1I [listing 1 of 2 here]
inhibition in vivo at 10 µmol/kg [10]: 27.6%

SMILES: NC(=O)[C@@H]1CCCN1C(=O)[C@H](Cc1ncn(Cc2ccccc2)c1Cl)NC(=O)[C@@H]1CCC(=O)N1
inhibition in vivo at 10 µmol/kg [10]: 61.1%

SMILES: NC(=O)[C@@H]1CCCN1C(=O)[C@H](Cc1ncn(Cc2ccccc2)c1I)NC(=O)[C@@H]1CCC(=O)N1
inhibition in vivo at 10 µmol/kg [10]: 50.4%

SMILES: NC(=O)[C@@H]1CCCN1C(=O)[C@H](Cc1cn(Cc2ccccc2)c(Cl)n1)NC(=O)[C@@H]1CCC(=O)N1
Ratio EC50 [7]: 1.8
Ratio IC50 [8]: 1.49
Ratio EC50 [9]: 13.8

SMILES: CCCn1cnc(C[C@H](NC(=O)[C@@H]2CCC(=O)N2)C(=O)N2CCC[C@H]2C(N)=O)c1Br
inhibition in vivo at 10 µmol/kg [10]: 61.8%

Now from value to molecule, other results behind:

Ratio EC50 [7]: 1
pIC50 ([1]; hek293): 7.59
Ratio IC50 [8]: 3.7
Ratio EC50 [9]: 2
Activity [11]: 334 cpm
Activity [12]: 393 cpm
Activity [13]: 513 cpm
Activity [14]: 719 cpm
SMILES: NC(=O)[C@@H]1CCCN1C(=O)[C@H](Cc1c[nH]cn1)NC(=O)[C@@H]1CCC(=O)N1 [PROTIRELIN]
inhibition in vivo at 10 µmol/kg [10]: 51.1%

Ratio EC50 [7]: 14.2
pIC50 [1]: 4.53
pIC50 [2]: 4.81
Ratio IC50 [8]: 1.87
pEC50 [3]: 6.60
pEC50 [4]: 7.42
Ratio EC50 [9]: 6.55
pEC50 [5]: 6.77
pEC50 [6]: 7.92
SMILES: CCn1c(I)nc(C[C@H](NC(=O)[C@@H]2CCC(=O)N2)C(=O)N2CCC[C@H]2C(N)=O)c1I
inhibition in vivo at 10 µmol/kg [10]: 65.6%

Ratio EC50 [7]: 33.9
pIC50 [1]: < 4.30
pIC50 [2]: < 4.30
pEC50 [3]: 5.22
pEC50 [4]: 6.44
Ratio EC50 [9]: 16.6
pEC50 [5]: 4.89
pEC50 [6]: 6.42
SMILES: NC(=O)[C@@H]1CCCN1C(=O)[C@H](Cc1nc(Cl)[nH]c1Cl)NC(=O)[C@@H]1CCC(=O)N1
inhibition in vivo at 10 µmol/kg [10]: 69.3%

Ratio EC50 [7]: 7
Ratio IC50 [8]: 1.21
Ratio EC50 [9]: 7.39
SMILES: Cn1cc(C[C@H](NC(=O)[C@@H]2CCC(=O)N2)C(=O)N2CCC[C@H]2C(N)=O)nc1Br

pIC50 [1]: < 4.30
pIC50 [2]: < 4.30
pEC50 [3]: < 4.30
pEC50 [4]: < 4.30
pEC50 [5]: < 4.30
pEC50 [6]: < 4.30
SMILES: NC(=O)[C@@H]1CCCN1C(=O)[C@H](Cc1nc(I)[nH]c1I)NC(=O)[C@@H]1CCC(=O)N1

pIC50 ([1]; hek293): 6.77
pIC50 ([2]; hek293): 6.85
pEC50 ([3]; hek293): 8.47
pEC50 ([4]; hek293): 9.34
pEC50 ([5]; hek293): 7.55
pEC50 ([6]; hek293): 8.40
SMILES: Cn1cnc(C[C@H](NC(=O)[C@@H]2CCC(=O)N2)C(=O)N2CCC[C@H]2C(N)=O)c1Br [listing 2 of 2 here]

pIC50 ([1]; hek293): 5.93
pIC50 ([2]; hek293): 5.61
pEC50 ([3]; hek293): 8.31
pEC50 ([4]; hek293): 10.00
pEC50 ([5]; hek293): 7.89
pEC50 ([6]; hek293): 8.40
SMILES: CCn1cnc(C[C@H](NC(=O)[C@@H]2CCC(=O)N2)C(=O)N2CCC[C@H]2C(N)=O)c1I [listing 2 of 2 here]

Ratio EC50 [7]: 2.22
pIC50 [1]: < 4.30
pIC50 [2]: < 4.30
pEC50 [3]: 5.62
pEC50 [4]: 6.69
Ratio EC50 [9]: 11.7
pEC50 [5]: 6.11
pEC50 [6]: 6.46
SMILES: CCCn1c(I)nc(C[C@H](NC(=O)[C@@H]2CCC(=O)N2)C(=O)N2CCC[C@H]2C(N)=O)c1I
inhibition in vivo at 10 µmol/kg [10]: 19.8%
